Experimental data published in patent US7855165B2, “Herbicide composition for paddy field” (Bayer Cropscience AG, priority 2007, dated 2010).
Read-outs that look alike come from different tables or passages of the source.

Experiments:
paddy rice = assay: Test Example 2: test of effect of phytotoxicity reduction; assay type: in vivo; conditions: 2 weeks after treatment
Description: (§1) • Component (a) (a-1): compound No. 1 (ref: the aforementioned Table A) • (a-2): compound No. 3 (same as above) • (a-3): compound No. 11 (same as above) • Component (b) the aforementioned (b-1)-(b-15) • Component (c) the aforementioned (c-1)-(c-3) <Preparation of Test Agents> • Carrier: Acetone 5 parts by weight • Surfactant: Benzyloxy polyglycol ether 1 part by weight The above-mentioned carrier and surfactant and 1 part by weight of active compounds (component (a) and component (b) or component (c)) are mixed and the obtained formulations are diluted with water to prepare the test agents of the prescribed chemicals amount (preparations).
In a green house, paddy rice of 2-2.5 leafstage was transplanted to paddy field soil filled in a 1000 cm^2 pot to 2 cm depth and brought to a submerged condition of about 2-3 cm. Five days after the transplantation, prescribed diluted solution of preparation of each active compound and each herbicide in the following table was applied on water surface each singly or simultaneously. After the treatment, the submerged condition of 3 cm was maintained and the grade of phytotoxicity to paddy rice was studied 2 weeks after the treatment. The phytotoxicity was evaluated as 100% in case of complete death and 0% in case of no phytotoxicity.

[1] = test system: Cyperus serotinus Rottboel; assay: Test Example 1: effect of the herbicide composition against paddy field weeds (pot test, green house); assay type: in vivo
Description: as §1
(§2) In a green house, seeds or tubers of Monochoria vaginalis Presl, annual broad-leaves (Lindernia procumbens Philcox, Rotala indica Koehne, Elatine triandra Schk, Ammannia multiflora Roxb., etc.), Cyperus serotinus Rottboel, and Sagittaria pygmaea Miq were inoculated to paddy field soil filled in a 500 cm^2 pot and brought to a submerged condition of about 2-3 cm. At 1.5-2 leafstage of each weed prescribed diluted solution of preparation of each active compound and each herbicide in the following table was applied on water surface each singly or simultaneously. After the treatment, the submerged condition of 3 cm was maintained and the herbicidal effect was studied 3 weeks after the treatment. The herbicidal effect was evaluated as 100% in case of complete death and 0% in case of no effect.
(§3) In the tables, MOOVP represents Monochoria vaginalis Presl, BBBBB represents annual broad-leaves, CYPSE represents Cyperus serotinus Rottboel and SAGPY represents Sagittaria pygmaea Miq.

[2] = test system: Monochoria vaginalis Presl; assay: as above; assay type: in vivo
Description: as §1, §2, §3

Sagittaria pygmaea Miq = assay: as above; assay type: in vivo
Description: as §1, §2, §3

[3] = test system: annual broad-leaves (Lindernia procumbens Philcox, Rotala indica Koehne, Elatine triandra Schk, Ammannia multiflora Roxb., etc.); assay: as above; assay type: in vivo; conditions: 3 weeks after treatment
Description: as §2, with “At 1.5-2 leafstage of each weed prescribed diluted solution of preparation of each active compound and each herbicide in the following table was applied on water surface each singly or simultaneously.” left out
as §3

[4] = as above; assay type: in vivo, annual broad-leaves; conditions: 504 h, read-out: Herbicidal effect (%) BBBBB
Description: as §2, with “At 1.5-2 leafstage of each weed prescribed diluted solution of preparation of each active compound and each herbicide in the following table was applied on water surface each singly or simultaneously.” left out
as §3

[5] = 50 g/ha single, 3 weeks after treatment
[6] = 100 g/ha single, 3 weeks after treatment
[7] = Cyperus serotinus, 504 h, read-out: Herbicidal effect (%) CYPSE
[8] = Pontederia vaginalis, 504 h, read-out: Herbicidal effect (%) MOOVP
[9] = Sagittaria pygmaea, 504 h, read-out: Herbicidal effect (%) SAGPY

Cc1ccc(NC(=O)NC(C)(C)c2ccccc2)cc1 [(c-1), dymron]
Phytotoxicity % (paddy rice; 450 g/ha single): 0%

CCOC(=O)C1=NN(c2ccc(Cl)cc2Cl)C(C)(C(=O)OCC)C1 (stereo not drawn) [(c-2), mefenpyr-diethyl]
Phytotoxicity % (paddy rice; 500 g/ha single): 0%

C#CCN(C)c1c(C#N)cnn1-c1nn2c(c1Cl)CCCC2 [(b-6), pyraclonil]
Herbicidal effect (%) CYPSE [1, 5]: 20% | Herbicidal effect (%) CYPSE [1, 6]: 30% | Herbicidal effect (%) MOOVP [2, 5]: 80% | Herbicidal effect (%) MOOVP [2, 6]: 90% | Herbicidal effect (%) SAGPY (Sagittaria pygmaea Miq; [5]): 50% | Herbicidal effect (%) SAGPY (Sagittaria pygmaea Miq; [6]): 85% | Herbicidal effect (%) BBBBB ([3]; 50 g/ha single): 90% | Herbicidal effect (%) BBBBB ([3]; 100 g/ha single): 90%

O=C(O)C1=NOC(c2ccccc2)(c2ccccc2)C1 [(c-3), isoxadifen]
Phytotoxicity % (paddy rice; 500 g/ha single): 0%

CCCOCCN(C(=O)CCl)c1c(CC)cccc1CC [(b-2), pretilachlor]
pest or weed control at 125 g/ha ([1]; Cyperus serotinus, 504 h, 125 g/ha single, 3 weeks after treatment, read-out: Herbicidal effect (%) CYPSE): 0% | pest or weed control at 250 g/ha ([1]; Cyperus serotinus, 504 h, 250 g/ha single, 3 weeks after treatment, read-out: Herbicidal effect (%) CYPSE): 0% | pest or weed control at 125 g/ha ([2]; Pontederia vaginalis, 504 h, 125 g/ha single, 3 weeks after treatment, read-out: Herbicidal effect (%) MOOVP): 10% | pest or weed control at 250 g/ha ([2]; Pontederia vaginalis, 504 h, 250 g/ha single, 3 weeks after treatment, read-out: Herbicidal effect (%) MOOVP): 20% | pest or weed control at 125 g/ha (Sagittaria pygmaea Miq; Sagittaria pygmaea, 504 h, 125 g/ha single, 3 weeks after treatment, read-out: Herbicidal effect (%) SAGPY): 0% | pest or weed control at 250 g/ha (Sagittaria pygmaea Miq; Sagittaria pygmaea, 504 h, 250 g/ha single, 3 weeks after treatment, read-out: Herbicidal effect (%) SAGPY): 10% | pest or weed control at 125 g/ha ([4]; 125 g/ha single, 3 weeks after treatment): 10% | pest or weed control at 250 g/ha ([4]; 250 g/ha single, 3 weeks after treatment): 10%

CCN(CC)C(=O)n1cnc(S(=O)(=O)c2c(C)cc(C)cc2C)n1 [(b-3), cafenstrole]
pest or weed control at 75 g/ha [1, 7]: 0% | pest or weed control at 150 g/ha [1, 7]: 70% | pest or weed control at 75 g/ha [2, 8]: 50% | pest or weed control at 150 g/ha [2, 8]: 60% | pest or weed control at 75 g/ha (Sagittaria pygmaea Miq; [9]): 10% | pest or weed control at 150 g/ha (Sagittaria pygmaea Miq; [9]): 10% | pest or weed control at 75 g/ha [4]: 40% | pest or weed control at 150 g/ha [4]: 50%

CS(=O)(=O)c1ccc(C(=O)C2C(=O)CCCC2=O)c(Cl)c1COCC1CCCO1 (stereo not drawn) [(b-15), 2-{2-chloro-4-mesyl-3-[(tetrahydrofuran-2-ylmethoxy)-methyl]-benzoyl}-cyclohexan-1,3-dione]
pest or weed control at 75 g/ha ([1]; Cyperus serotinus, 504 h, 75 g/ha single, 3 weeks after treatment, read-out: Herbicidal effect (%) CYPSE): 80% | pest or weed control at 150 g/ha ([1]; Cyperus serotinus, 504 h, 150 g/ha single, 3 weeks after treatment, read-out: Herbicidal effect (%) CYPSE): 85% | pest or weed control at 75 g/ha ([2]; Pontederia vaginalis, 504 h, 75 g/ha single, 3 weeks after treatment, read-out: Herbicidal effect (%) MOOVP): 85% | pest or weed control at 150 g/ha ([2]; Pontederia vaginalis, 504 h, 150 g/ha single, 3 weeks after treatment, read-out: Herbicidal effect (%) MOOVP): 95% | pest or weed control at 75 g/ha (Sagittaria pygmaea Miq; Sagittaria pygmaea, 504 h, 75 g/ha single, 3 weeks after treatment, read-out: Herbicidal effect (%) SAGPY): 80% | pest or weed control at 150 g/ha (Sagittaria pygmaea Miq; Sagittaria pygmaea, 504 h, 150 g/ha single, 3 weeks after treatment, read-out: Herbicidal effect (%) SAGPY): 80% | pest or weed control at 75 g/ha ([4]; 75 g/ha single, 3 weeks after treatment): 50% | pest or weed control at 150 g/ha ([4]; 150 g/ha single, 3 weeks after treatment): 65%

CCS(=O)(=O)Oc1ccc2c(c1)C(C)(C)CO2 [(b-11), benfuresate]
pest or weed control at 125 g/ha [1, 7]: 20% | pest or weed control at 250 g/ha [1, 7]: 70% | pest or weed control at 125 g/ha [2, 8]: 0% | pest or weed control at 250 g/ha [2, 8]: 0% | pest or weed control at 125 g/ha (Sagittaria pygmaea Miq; [9]): 10% | pest or weed control at 250 g/ha (Sagittaria pygmaea Miq; [9]): 20% | pest or weed control at 125 g/ha [4]: 0% | pest or weed control at 250 g/ha [4]: 0%

CCCCOC(=O)[C@@H](C)Oc1ccc(Oc2ccc(C#N)cc2F)cc1 [(b-4), cyhalofop-butyl]
pest or weed control at 90 g/ha [1, 7]: 0% | pest or weed control at 180 g/ha [1, 7]: 0% | pest or weed control at 90 g/ha [2, 8]: 0% | pest or weed control at 180 g/ha [2, 8]: 10% | pest or weed control at 90 g/ha (Sagittaria pygmaea Miq; [9]): 10% | pest or weed control at 180 g/ha (Sagittaria pygmaea Miq; [9]): 20% | pest or weed control at 90 g/ha [4]: 0% | pest or weed control at 180 g/ha [4]: 0%
